Measured values published in patent publication US20070286886A1, “Materials And Methods For Inducing Apoptosis In Adipocytes” (University of Tennessee Research Foundation, priority 2004, published 2007).
Entries after “also recorded” stand apart in the source; their conditions may differ.

Experiments:
Type in all cases: cell-based
[1] = system: 3T3-L1 and UCP2-transfected 3T3-L1 cells; assay: Mitochondrial membrane potential (JC-1 fluorometry) in adipocytes; settings: for mitochondrial potential: 4 h
Method: (§1) Adipocytes were incubated with adipocyte medium for 4 h with or without 1α,25-(OH)2-D3. Mitochondrial membrane potential was analyzed fluorometrically with a lipophilic cationic dye JC-1 (5,5′,6,6′-tetrachloro-1,1′,3,3′-tetraethylbenzimidazol carbocyanine iodide) using a mitochondrial potential detection kit (Biocarta, San Diego, Calif.). Mitochondrial potential was determined as the ratio of red fluorescence (excitation 550 nm, emission 600 nm) and green fluorescence (excitation 485 nm, emission 535 nm) using a fluorescence microplate reader.
as §1, with “GDP, BK 8644, GDP plus BK8644.” for “1α,25-(OH)2-D3.”

[2] = system: caspase-3; assay: Caspase-3 mRNA expression by real-time PCR in 3T3-L1 and UCP2-transfected 3T3-L1 adipocytes
Method: 3T3-L1 preadipocytes were incubated at a density of 8000 cells/cm2 (10 cm2 dish) and grown in Dulbecco's modified Eagle's medium (DMEM) containing 10% FBS and antibiotics (adipocyte medium) at 37° C. in 5% CO2 in air. Confluent preadipocytes were induced to differentiate with a standard differentiation medium consisting of DMEM-F10 (1:1, vol/vol) medium supplemented with 1% FBS, 1 μM dexamethasone, IBMX (0.5 mM), and antibiotics (1% penicillin-streptomycin). Preadipocytes were maintained in this differentiation medium for 3 days and subsequently cultured in adipocyte medium. Cultures were re-fed every 2-3 days to allow 90% cells to reach full differentiation before they were chemically treated. Chemicals were freshly diluted in adipocyte medium before treatment. Cells were washed with fresh adipocyte medium, re-fed with medium containing the different treatments, and incubated at 37° C. in 5% CO2 in air before analysis. Cell viability was measured via trypan blue exclusion.
UCP2 full-length cDNAs were amplified by […] using mRNAs isolated from mouse white adipose tissues. The PCR primers for this amplification are shown as follows: UCP2 forward, 5′-[…]-3′, reverse, 5′-[…]-3′. The PCR products were then subcloned into pcDNA4/His expression vectors. The linearized constructs were transfected into 3T3-L1 preadipocytes using lipofectamine plus standard protocol (Invitrogen, Carlsbad, Calif.). After 48 h of transfection, cells were split and cultured in selective medium containing 400 ug/ml zeocin for the selection of resistant colonies. Cells were fed with selective medium every 3 days until resistant colonies could be identified. These resistant foci were picked, expanded, tested for expression, and frozen for future experiments.
A total cellular RNA isolation kit (Ambion, Austin, Tex.) was used to extract total RNA from 3T3-L1 cells according to the manufacturer's instructions.
Adipocyte caspase-1, caspase-3, Bcl-2, and Bax mRNA were quantitatively measured using a Smart Cycler Real Time PCR System (Cepheid, Sunnyvale, Calif.) with a TaqMan 1000 Core Reagent Kit (Applied Biosystems, Branchburg, N.J.). The primers and probe sets were ordered from Applied Biosystems TaqMan Assays-on-Demand Gene Expression primers and probe set collection according to the manufacturer's instructions. Pooled 3T3-L1 adipocyte total RNA was serial-diluted in the range of 1.5625-25 ng and used to establish a standard curve; total RNAs for unknown samples were also diluted in this range. Reactions of quantitative RT-PCR for standards and unknown samples were Cepheid, Sunnyvale, Calif.) and TaqMan Real Time PCR Core Kit. The mRNA quantitation for each sample was further normalized using the corresponding 18 s quantitation, with a forward primer, 5′-[…]-3′, and a reverse primer, 5′-[…]-3′.
3T3-L1 preadipocytes were incubated at a density of 8000 cells/cm2 (10 cm2 dish) and grown in Dulbecco's modified Eagle's medium (DMEM) containing 10% FBS and antibiotics at 37° C. in 5% CO2. Confluent preadipocytes were induced to differentiate with a standard differentiation medium consisting of DMEM-F 10 (1:1, vol/vol) medium supplemented with 1% FBS, 1 μM dexamethasone, IBMX (0.5 mM) and antibiotics (1% penicillin/streptomycin). Preadipocytes were maintained in this differentiation medium for 3 days and subsequently cultured in adipocyte medium. Cultures were re-fed every 2-3 days to allow 90% cells to reach fully differentiation before conducting chemical treatment. Chemicals were freshly diluted in adipocyte medium before treatment. Cells were washed with fresh adipocyte medium, re-fed with medium containing the different treatments, and incubated at 37° C. in 5% CO2 in air before analysis. Cell viability was measured via trypan blue exclusion.
Adipocytes were incubated with adipocyte medium for 24 h with or without GDP, BK 8644, GDP plus BK8644 before total RNA extraction. […]

[3] = system: 3T3-L1 and UCP2-transfected 3T3-L1 adipocytes; assay: Cytosolic/intracellular calcium (fura-2 dual-wavelength fluorescence imaging) in adipocytes

caspase-3 expression ([2]; high dose 100 nM, 24 h, control and UCP2-transfected 3T3-L1 cells, P<0.01)	caspase-3 expression ([2]; physiological low doses 0.1 nM, 1 nM, 5 nM, 10 nM, 24 h, control and UCP2-transfected 3T3-L1 cells, P<0.05)	caspase-3 expression ([2]; 3T3-L1 cells, Bay K 8644 5-100 nM range of FIG. 15)	SMILES	mitochondrial potential ([1]; high dose (100 nM))	mitochondrial potential ([1]; lower doses, 3T3-L1 and UCP2 stably transfected 3T3-L1 cells)	mitochondrial Δψ in L1-UCP2 cells ([1]; physiological doses (0.1-10 nM), L1-UCP2 cells)	cytosolic calcium levels ([3]; 1 nM, 5 nM, 10 nM, 100 nM, control and UCP2-transfected cells)	increase in calcium influx, high dose relative to the lower doses ([3]; high dose (100 nM) vs lower doses) [fold]	effect on mitochondrial potential ([1]; 3T3-L1 cells, BK8644 alone)	adipocyte Ca2+ influx / [Ca2+]i ([3]; 1 nM-100 nM, 3T3-L1 cells)	increases in [Ca2+]i ([3]; 3T3-L1 cells)
stimulated	inhibited		C=C1/C(=C\C=C2/CCC[C@]3(C)[C@@H]([C@H](C)CCCC(C)(C)O)CC[C@@H]23)C[C@@H](O)C[C@@H]1O [1α,25-(OH)2-D3, 1α,25-dihydroxyvitamin D3]	collapse	significantly increase	restored	dose-dependent increase; also recorded: dose-dependently	10			
		dose-dependently	COC(=O)C1=C(C)NC(C)=C([N+](=O)[O-])C1c1ccccc1C(F)(F)F (centres unmarked) [Bay K 8644]						no effect	dose-dependent	3-4 fold
